In patent US20200069685A1, “Dosing schedule for a combination of Ceritinib and an anti-PD-1 antibody molecule” (NOVARTIS AG, priority 2017, published 2020):

Legend:
Type in all cases: in vivo, human
[1] = Relative bioavailability study in healthy subjects, light snack cohort; settings: light snack (approximately 100-300 calories and 1.5 grams of fat), single 750 mg oral dose
[2] = Ceritinib steady state PK (AUC0-24 and Cmax) in the ceritinib and nivolumab combination cohorts; settings: preliminary; ceritinib in combination with nivolumab
Procedure: The doses were reduced from 750 mg in the steps of 150 mg down to the lowest 300 mg. If the patient required doses lower than 300 mg, ceritinib was discontinued. Approximately 54% of patients initiating treatment at the recommended dose of 750 mg fasted required at least one dose adjustment due to adverse reaction, with a median time to first dose reduction of approximately 7 weeks. However, based on the preliminary data from 36 patients, who were enrolled to 4 cohorts to the concomitant combination therapy of ceritinib and nivolumab, the rates of severe rash (even grade 3) were unexpectedly higher. The cohorts were as follows: cohort 1 (n=8), ceritinib 450 mg daily with a low fat meal in combination with nivolumab 3 mg/kg Q2W; cohort 2 (n=6), ceritinib 450 mg daily with a low fat meal in combination with nivolumab 3 mg/kg Q2W; cohort 3 (n=11), ceritinib 300 mg daily with a low fat meal in combination with nivolumab 3 mg/kg Q2W; cohort 4 (n=11), ceritinib 300 mg daily with a low fat meal in combination with nivolumab 3 mg/kg Q2W. Both dose levels, i.e. 450 mg and 300 mg of ceritinib, administered with the low fat meal led to severe rash. The 450 mg dose level had higher rates of some adverse events, especially grade-3 rash, than expected based on data from either single agent. […]

[3] = Ceritinib alone: side effects and dose adjustments in patients
Procedure: The doses were reduced from 750 mg in the steps of 150 mg down to the lowest 300 mg. If the patient required doses lower than 300 mg, ceritinib was discontinued. Approximately 54% of patients initiating treatment at the recommended dose of 750 mg fasted required at least one dose adjustment due to adverse reaction, with a median time to first dose reduction of approximately 7 weeks. However, based on the preliminary data from 36 patients, who were enrolled to 4 cohorts to the concomitant combination therapy of ceritinib and nivolumab, the rates of severe rash (even grade 3) were unexpectedly higher. The cohorts were as follows: cohort 1 (n=8), ceritinib 450 mg daily with a low fat meal in combination with nivolumab 3 mg/kg Q2W; cohort 2 (n=6), ceritinib 450 mg daily with a low fat meal in combination with nivolumab 3 mg/kg Q2W; cohort 3 (n=11), ceritinib 300 mg daily with a low fat meal in combination with nivolumab 3 mg/kg Q2W; cohort 4 (n=11), ceritinib 300 mg daily with a low fat meal in combination with nivolumab 3 mg/kg Q2W. Both dose levels, i.e. 450 mg and 300 mg of ceritinib, administered with the low fat meal led to severe rash. The 450 mg dose level had higher rates of some adverse events, especially grade-3 rash, than expected based on data from either single agent. The proportion of patients with grade-3 rash was higher at the 450 mg dose level, 4/14 patients (29%), than at the 300 mg dose level, 3/22 patients (14%). With regard to the efficacy of the combination therapy, of the 14 patients treated at the 450 mg dose level, 9 (64%) achieved a confirmed partial response. Of the 22 patients treated at the 300 mg dose level, 4 (18%) achieved a confirmed complete (1 patient) or partial (3 patients) response; however, limited follow up, especially for cohort 4, confounded the assessment of confirmed response. The disease control rate (DCR) was similar for the 450 mg and 300 mg dose levels, 79% and 82% respectively. […] However, the 300 mg dose level appeared to have a lower number of objective responses, although this observation was based on a small number of patients with limited follow-up. […] Therefore, based on the safety, efficacy, and PK data a new beneficial dosing regimen is provided that is expected to improve tolerability while maintaining exposure similar to that observed at the 450 mg dose level. We provide herein a dosing regimen for the combination therapy of ceritinib and an anti-PD-1 antibody molecule, where ceritinib is administered for 2 cycles before initiation of combination therapy with nivolumab. […]

[4] = Food effect study of ceritinib in healthy subjects; settings: single oral dose 500 mg
[5] = high-fat meal (approximately 1000 calories and 58 grams of fat)
[6] = low-fat meal (approximately 330 calories and 9 grams of fat)

## Cc1cc(Nc2ncc(Cl)c(Nc3ccccc3S(=O)(=O)C(C)C)n2)c(OC(C)C)cc1C1CCNCC1 [ceritinib, 5-chloro-N2-(2-isopropoxy-5-methyl-4-(piperidin-4-yl)phenyl)-N4-[2-(propane-2-sulfonyl)-phenyl]-pyrimidine-2,4-diamine]
[1]
  increase of AUCinf compared to the fasted condition: 54%
  increase of Cmax compared to the fasted condition: 45%
[2]
  steady state exposure (AUC0-24 and Cmax) at 300 mg with food relative to 450 mg with food: 60-65%
[3]
  rash: observed rarely
  side effects observed: nausea, diarrhea, vomiting, fatigue, ALT/AST elevation, constipation, abdominal pain
[3]; 750 mg fasted
  median time to first dose reduction: approximately 7 weeks
[3]; recommended dose of 750 mg fasted
  patients who required at least one dose adjustment due to adverse reaction: Approximately 54%
[4]; [5]
  increase of AUCinf compared to the fasted state: 73%
  increase of Cmax compared to the fasted state: 41%
[4]; [6]
  increase of AUCinf compared to the fasted state: 58%
  increase of Cmax compared to the fasted state: 43%
